Test system in one data set: not listed separately
Description: suitable genotoxicity assays (e.g., Ames II assay). Format: cell-based.
Conditions: not given
How it is done: A solution of 4,4′-methylenebis(2,6-di-t-butylphenol) (500 grams, 1.076 moles obtained from Albemarle Corporation) in anhydrous dimethylformamide (1.5 liters) was cooled to −10° C. and a solution of sodium tert-pentoxide (374 grams, 3.23 moles) in anhydrous dimethylformamide (1.5 liters) was added dropwise at −10 to −5° C. The mixture was stirred for 30 minutes at −10° C. Epichlorohydrin (1.9 liters, 24.2 moles) was added via dropping funnel at −10 to −5° C. The solution was allowed to warm up to room temperature and then was heated for 16 hours at a temperature of from 75 to 82° C. After cooling down to ambient temperature, the mixture was added to cold tap water (12 liters). Ethyl acetate (5 liters) was added to the mixture, which was stirred for 10 minutes and separated. The aqueous layer was extracted again with additional ethyl acetate (3 liters). The combined ethyl acetate extracts were washed twice with brine (2×6 liters), dried over anhydrous sodium sulfate (600 grams), and filtered. The solvent was removed under reduced pressure to give 887 grams of crude product as a purple oil. The crude product was dissolved in toluene (600 milliliters) and passed over a silica gel pad (1.4 kilograms), and eluted with a mixture of toluene and heptane (8 parts toluene to 2 parts heptane). The fractions containing product were combined and evaporated under reduced pressure. […]
A general note: The Ames test uses bacterial strains that need an amino acid and regain growth without it when mutated back.
In the case of `CC(C)(C)c1cc(Cc2cc(C(C)(C)C)c(OCC3CO3)c(C(C)(C)C)c2)cc(C(C)(C)C)c1OCC1CO1` (stereo not shown) [Diglycidyl ether of 4,4′-methylenebis(2,6-di-tert-butylphenol)], the genotoxicity result is “non-genotoxic”.

Consider `CCCC(c1cc(C(C)(C)C)c(OCC2CO2)cc1C)c1cc(C(C)(C)C)c(OCC2CO2)cc1C` (stereo not shown) [Diglycidyl ether of 4,4′Butylidenebis(2-t-butyl-5-methylphenol))], for which the genotoxicity entry is given as “non-genotoxic”.

The subject of a further data set is MCF-7, clone WS8, cells. Description: MCF-7 cell proliferation assay of estrogenic activity. Format: cell-based, human. The conditions noted are these: logarithmic (base 10) Relative Proliferative Effect vs 17-beta estradiol; values 'expected or measured'. The text has this: The MCF-7 assay is a useful test for assessing whether a polyhydric phenol compound is appreciably non-estrogenic. The MCF-7 assay uses MCF-7, clone WS8, cells to measure whether and to what extent a substance induces cell proliferation via estrogen receptor (ER)-mediated pathways. The method is described in “Test Method Nomination: MCF-7 Cell Proliferation Assay of Estrogenic Activity” submitted for validation by CertiChem, Inc. to the National Toxicology Program Interagency Center for the Evaluation of Alternative Toxicological Methods (NICEATM) on Jan. 19, 2006 (available online at iccvam.niehs.nih.gov/methods/endocrine/endodocs/SubmDoc.pdf).
A brief summary of the method of the aforementioned MCF-7 assay is provided below. MCF-7, clone WS8, cells are maintained at 37° C. in RMPI (Roswell Park Memorial Institute medium) containing Phenol Red (e.g., GIBCO Catalog Number 11875119) and supplemented with the indicated additives for routine culture. An aliquot of cells maintained at 37° C. are grown for two days in phenol-free media containing 5% charcoal stripped fetal bovine serum in a 25 cm^2 tissue culture flask. Using a robotic dispenser such as an EPMOTION™ 5070 unit from Eppendorf AG, MCF-7 cells are then seeded at 400 cells per well in 0.2 ml of hormone-free culture medium in CORNING™ 96-well plates from Corning Life Sciences. The cells are adapted for 3 days in the hormone-free culture medium prior to adding the chemical to be assayed for estrogenic activity. The media containing the test chemical is replaced daily for 6 days. At the end of the 7 day exposure to the test chemical, the media is removed, the wells are washed once with 0.2 ml of HBSS (Hanks' Balanced Salt Solution), and then assayed to quantify amounts of DNA per well using a micro-plate modification of the Burton diphenylamine (DPA) assay, which is used to calculate the level of cell proliferation. […]
Table I shown below includes exemplary preferred polyhydric phenol compounds of Formula II and their expected or measured logarithmic RPE values in the MCF-7 assay.
Regarding `C[C@]12CC[C@@H]3c4ccc(O)cc4CC[C@H]3[C@@H]1CC[C@@H]2O` [17β-estradiol], the “Log RPE” value was found to be 2.00.

As for `Oc1ccc(Cc2ccc(O)cc2)cc1` [Bisphenol F], the “Log RPE” value is reported as −2.

Turning to `O=S(=O)(c1ccc(O)cc1)c1ccc(O)cc1` [Bisphenol S], the “Log RPE” value is −2.

For another data set, the target named is T1, human estrogen receptor (Homo sapiens, UniProt P03372).
T1 sequence (P03372 1-595): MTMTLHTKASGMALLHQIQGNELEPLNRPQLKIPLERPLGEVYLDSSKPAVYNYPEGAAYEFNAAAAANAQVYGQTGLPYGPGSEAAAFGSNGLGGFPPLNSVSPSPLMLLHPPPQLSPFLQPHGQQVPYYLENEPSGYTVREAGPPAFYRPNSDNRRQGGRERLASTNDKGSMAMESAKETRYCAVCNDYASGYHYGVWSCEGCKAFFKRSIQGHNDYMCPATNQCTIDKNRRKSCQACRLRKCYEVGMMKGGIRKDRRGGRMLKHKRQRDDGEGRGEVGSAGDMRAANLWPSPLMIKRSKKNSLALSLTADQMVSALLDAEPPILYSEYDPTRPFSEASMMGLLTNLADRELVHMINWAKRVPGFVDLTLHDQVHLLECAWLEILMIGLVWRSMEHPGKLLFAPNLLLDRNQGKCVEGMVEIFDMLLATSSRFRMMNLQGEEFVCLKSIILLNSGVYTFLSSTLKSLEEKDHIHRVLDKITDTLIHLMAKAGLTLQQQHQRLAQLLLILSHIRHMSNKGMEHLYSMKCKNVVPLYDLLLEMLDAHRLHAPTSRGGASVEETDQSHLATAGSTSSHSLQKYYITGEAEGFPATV
As to the kind of experiment: suitable in vitro assay whose results are directly correlated to the MCF-7 assay. The conditions noted are these: in vitro assay correlated to MCF-7 through common reference compounds.
Consider `Cc1cc(Cc2cc(C)c(O)c(C)c2)cc(C)c1O` [Structure 6, 4,4′-methylenebis(2,6-dimethylphenol)], for which the estrogenic activity entry was “do not exhibit appreciable estrogenic activity”.

Consider `CCCC(c1cc(C(C)(C)C)c(O)cc1C)c1cc(C(C)(C)C)c(O)cc1C` [Structure 7, 4,4′-butylidenebis(2-t-butyl-5-methylphenol)], for which the estrogenic activity entry is given as “do not exhibit appreciable estrogenic activity”.

As to `CC(C)(C)c1cc(Cc2cc(C(C)(C)C)c(O)c(C(C)(C)C)c2)cc(C(C)(C)C)c1O` [Structure 8, 4,4′-methylenebis(2,6-di-t-butylphenol)], the estrogenic activity entry is recorded as “do not exhibit appreciable estrogenic activity”.

Turning to `Cc1cc(Cc2cc(C)cc(C(C)(C)C)c2O)c(O)c(C(C)(C)C)c1` [Structure 9], the estrogenic activity result is listed as “do not exhibit appreciable estrogenic activity”.

In the case of `CC(C)(C)c1cc(O)c(C(C)(C)C)cc1O` [Structure 12, 2,5-di-t-butylhydroquinone], the estrogenic activity result is listed as “do not exhibit appreciable estrogenic activity”.

The values are drawn from patent US10526502B2, “Container coating system” (SWIMC LLC, priority 2012, dated 2020).
